In ChEMBL document CHEMBL1141341, “Minor sesquiterpene lactones from Centaurea pullata and their antimicrobial activity” (2007):
≈ marks a conversion by molar mass, not a printed value.

Legend:
Fusarium tricinctum = assay: Antifungal activity against Fusarium tricinctum CBS 514478 by microdilution technique; type: functional
Micrococcus luteus = assay: Antibacterial activity against Micrococcus flavus ATCC 10240 by microdilution technique; type: functional
Bacillus subtilis = assay: Antibacterial activity against Bacillus subtilis ATCC 10907 by microdilution technique; type: functional
Pseudomonas tolaasii = assay: Antibacterial activity against Pseudomonas tolaasii by microdilution technique; type: functional
[1] = tested on: Staphylococcus epidermidis; assay: Antibacterial activity against Staphylococcus epidermidis ATCC 12228 by microdilution technique; type: functional
Salmonella enteritidis = assay: Antibacterial activity against Salmonella enteritidis by microdilution technique; type: functional, Salmonella enterica subsp. enterica serovar Enteritidis; details: Salmonella enterica
Escherichia coli = assay: Antibacterial activity against Escherichia coli ATCC 35210 by microdilution technique; type: functional
Aspergillus flavus = assay: Antifungal activity against Aspergillus flavus ATCC 9643 by microdilution technique; type: functional
Aspergillus niger = assay: Antifungal activity against Aspergillus niger ATCC 6275 by microdilution technique; type: functional
Aspergillus ochraceus = assay: Antifungal activity against Aspergillus ochraceus ATCC 12066 by microdilution technique; type: functional
Talaromyces funiculosus = assay: Antifungal activity against Penicillium funiculosum ATCC 36839 by microdilution technique; type: functional
Penicillium ochrochloron = assay: Antifungal activity against Penicillium ochrochloron ATCC 9112 by microdilution technique; type: functional
Trichoderma viride = assay: Antifungal activity against Trichoderma viride IAM 5061 by microdilution technique; type: functional
Alternaria alternata = assay: Antifungal activity against Alternaria alternata DSM 2006 by microdilution technique; type: functional

MIC (Fusarium tricinctum) [µg/mL] | MIC (Micrococcus luteus) [µg/mL] | MIC (Bacillus subtilis) [µg/mL] | MIC (Pseudomonas tolaasii) [µg/mL] | MIC [1] [µg/mL] | MIC (Salmonella enteritidis) [µg/mL] | MIC (Escherichia coli) [µg/mL] | MIC (Aspergillus flavus) [µg/mL] | MIC (Aspergillus niger) [µg/mL] | MIC (Aspergillus ochraceus) [µg/mL] | Structure (SMILES) | MFC (Fusarium tricinctum) [µg/mL] | MBC (Micrococcus luteus) [µg/mL] | MBC (Bacillus subtilis) [µg/mL] | MBC (Pseudomonas tolaasii) [µg/mL] | MBC [1] [µg/mL] | MBC (Salmonella enteritidis) [µg/mL] | MBC (Escherichia coli) [µg/mL] | MFC (Aspergillus flavus) [µg/mL] | MFC (Aspergillus niger) [µg/mL] | MFC (Aspergillus ochraceus) [µg/mL] | also measured
0.2 (≈ 0.526 µM) | 0.2 (≈ 0.526 µM) | 0.2 (≈ 0.526 µM) | 0.4 (≈ 1.05 µM) | 0.4 (≈ 1.05 µM) | 0.4 (≈ 1.05 µM) | 0.4 (≈ 1.05 µM) | 0.2 (≈ 0.526 µM) | 0.2 (≈ 0.526 µM) | 0.2 (≈ 0.526 µM) | C=C(CCO)C(=O)O[C@H]1C[C@]2(C)C([C@H](C=O)CC[C@H]2O)[C@H]2OC(=O)[C@H](C)[C@H]12 (stereo partly drawn) | 0.3 (≈ 0.789 µM) | 0.3 (≈ 0.789 µM) | 0.3 (≈ 0.789 µM) | 0.5 (≈ 1.31 µM) | 0.5 (≈ 1.31 µM) | 0.4 (≈ 1.05 µM) | 0.4 (≈ 1.05 µM) | 0.3 (≈ 0.789 µM) | 0.3 (≈ 0.789 µM) | 0.3 (≈ 0.789 µM) | MFC (Talaromyces funiculosus): 0.4 µg/mL (≈ 1.05 µM); MIC (Talaromyces funiculosus): 0.3 µg/mL (≈ 0.789 µM); MFC (Penicillium ochrochloron): 0.4 µg/mL (≈ 1.05 µM); MIC (Penicillium ochrochloron): 0.3 µg/mL (≈ 0.789 µM); MFC (Trichoderma viride): 0.4 µg/mL (≈ 1.05 µM); MIC (Trichoderma viride): 0.3 µg/mL (≈ 0.789 µM); MFC (Alternaria alternata): 0.3 µg/mL (≈ 0.789 µM); MIC (Alternaria alternata): 0.2 µg/mL (≈ 0.526 µM)
0.2 (≈ 0.481 µM) | – | – | – | – | – | – | 0.5 (≈ 1.2 µM) | 1.5 (≈ 3.6 µM) | 1.5 (≈ 3.6 µM) | Clc1ccc(COC(Cn2ccnc2)c2ccc(Cl)cc2Cl)c(Cl)c1 (stereo not drawn) [MICONAZOLE] | 1 (≈ 2.4 µM) | – | – | – | – | – | – | 2 (≈ 4.81 µM) | 4 (≈ 9.61 µM) | 4 (≈ 9.61 µM) | MFC (Talaromyces funiculosus): 5 µg/mL (≈ 12 µM); MIC (Talaromyces funiculosus): 2 µg/mL (≈ 4.81 µM); MFC (Penicillium ochrochloron): 5 µg/mL (≈ 12 µM); MIC (Penicillium ochrochloron): 2 µg/mL (≈ 4.81 µM); MFC (Trichoderma viride): 2 µg/mL (≈ 4.81 µM); MIC (Trichoderma viride): 2 µg/mL (≈ 4.81 µM); MFC (Alternaria alternata): 1 µg/mL (≈ 2.4 µM); MIC (Alternaria alternata): 0.2 µg/mL (≈ 0.481 µM)
0.2 (≈ 0.473 µM) | 0.2 (≈ 0.473 µM) | 0.2 (≈ 0.473 µM) | 0.2 (≈ 0.473 µM) | 0.4 (≈ 0.947 µM) | 0.3 (≈ 0.71 µM) | 0.3 (≈ 0.71 µM) | 0.2 (≈ 0.473 µM) | 0.2 (≈ 0.473 µM) | 0.1 (≈ 0.237 µM) | CC(=O)OC/C=C(/CO)C(=O)O[C@H]1C/C(C)=C/CC/C(CO)=C/[C@H]2OC(=O)[C@H](C)[C@H]12 | 0.3 (≈ 0.71 µM) | 0.3 (≈ 0.71 µM) | 0.3 (≈ 0.71 µM) | 0.3 (≈ 0.71 µM) | 0.5 (≈ 1.18 µM) | 0.3 (≈ 0.71 µM) | 0.3 (≈ 0.71 µM) | 0.2 (≈ 0.473 µM) | 0.3 (≈ 0.71 µM) | 0.2 (≈ 0.473 µM) | MFC (Talaromyces funiculosus): 0.3 µg/mL (≈ 0.71 µM); MIC (Talaromyces funiculosus): 0.2 µg/mL (≈ 0.473 µM); MFC (Penicillium ochrochloron): 0.2 µg/mL (≈ 0.473 µM); MIC (Penicillium ochrochloron): 0.1 µg/mL (≈ 0.237 µM); MFC (Trichoderma viride): 0.3 µg/mL (≈ 0.71 µM); MIC (Trichoderma viride): 0.2 µg/mL (≈ 0.473 µM); MFC (Alternaria alternata): 0.3 µg/mL (≈ 0.71 µM); MIC (Alternaria alternata): 0.2 µg/mL (≈ 0.473 µM)
0.2 (≈ 0.549 µM) | 0.2 (≈ 0.549 µM) | 0.2 (≈ 0.549 µM) | 0.3 (≈ 0.823 µM) | 0.4 (≈ 1.1 µM) | 0.3 (≈ 0.823 µM) | 0.2 (≈ 0.549 µM) | 0.1 (≈ 0.274 µM) | 0.2 (≈ 0.549 µM) | 0.1 (≈ 0.274 µM) | C=C(CCO)C(=O)O[C@H]1C/C(C)=C/CC/C(CO)=C/[C@H]2OC(=O)[C@H](C)[C@H]12 | 0.3 (≈ 0.823 µM) | 0.3 (≈ 0.823 µM) | 0.2 (≈ 0.549 µM) | 0.3 (≈ 0.823 µM) | 0.4 (≈ 1.1 µM) | 0.3 (≈ 0.823 µM) | 0.2 (≈ 0.549 µM) | 0.2 (≈ 0.549 µM) | 0.3 (≈ 0.823 µM) | 0.2 (≈ 0.549 µM) | MFC (Talaromyces funiculosus): 0.3 µg/mL (≈ 0.823 µM); MIC (Talaromyces funiculosus): 0.2 µg/mL (≈ 0.549 µM); MFC (Penicillium ochrochloron): 0.2 µg/mL (≈ 0.549 µM); MIC (Penicillium ochrochloron): 0.1 µg/mL (≈ 0.274 µM); MFC (Trichoderma viride): 0.3 µg/mL (≈ 0.823 µM); MIC (Trichoderma viride): 0.2 µg/mL (≈ 0.549 µM); MFC (Alternaria alternata): 0.3 µg/mL (≈ 0.823 µM); MIC (Alternaria alternata): 0.2 µg/mL (≈ 0.549 µM)
0.2 (≈ 0.526 µM) | 0.2 (≈ 0.526 µM) | 0.2 (≈ 0.526 µM) | 0.2 (≈ 0.526 µM) | 0.4 (≈ 1.05 µM) | 0.4 (≈ 1.05 µM) | 0.4 (≈ 1.05 µM) | 0.2 (≈ 0.526 µM) | 0.2 (≈ 0.526 µM) | 0.2 (≈ 0.526 µM) | C=C(CCO)C(=O)O[C@H]1C[C@]2(C)C([C@H]3OC(=O)[C@H](C)[C@H]13)[C@@H](C=O)CC[C@H]2O (stereo partly drawn) | 0.3 (≈ 0.789 µM) | 0.3 (≈ 0.789 µM) | 0.3 (≈ 0.789 µM) | 0.3 (≈ 0.789 µM) | 0.5 (≈ 1.31 µM) | 0.4 (≈ 1.05 µM) | 0.4 (≈ 1.05 µM) | 0.3 (≈ 0.789 µM) | 0.3 (≈ 0.789 µM) | 0.3 (≈ 0.789 µM) | MFC (Talaromyces funiculosus): 0.4 µg/mL (≈ 1.05 µM); MIC (Talaromyces funiculosus): 0.3 µg/mL (≈ 0.789 µM); MFC (Penicillium ochrochloron): 0.4 µg/mL (≈ 1.05 µM); MIC (Penicillium ochrochloron): 0.3 µg/mL (≈ 0.789 µM); MFC (Trichoderma viride): 0.5 µg/mL (≈ 1.31 µM); MIC (Trichoderma viride): 0.4 µg/mL (≈ 1.05 µM); MFC (Alternaria alternata): 0.3 µg/mL (≈ 0.789 µM); MIC (Alternaria alternata): 0.2 µg/mL (≈ 0.526 µM)
0.1 (≈ 0.263 µM) | 0.2 (≈ 0.526 µM) | 0.2 (≈ 0.526 µM) | 0.2 (≈ 0.526 µM) | 0.4 (≈ 1.05 µM) | 0.3 (≈ 0.789 µM) | 0.2 (≈ 0.526 µM) | 0.1 (≈ 0.263 µM) | 0.2 (≈ 0.526 µM) | 0.1 (≈ 0.263 µM) | C=C(C(=O)O[C@H]1C/C(C)=C/CC/C(CO)=C/[C@H]2OC(=O)[C@H](C)[C@H]12)C(O)CO (stereo partly drawn) | 0.2 (≈ 0.526 µM) | 0.3 (≈ 0.789 µM) | 0.2 (≈ 0.526 µM) | 0.3 (≈ 0.789 µM) | 0.4 (≈ 1.05 µM) | 0.3 (≈ 0.789 µM) | 0.3 (≈ 0.789 µM) | 0.2 (≈ 0.526 µM) | 0.3 (≈ 0.789 µM) | 0.2 (≈ 0.526 µM) | MFC (Talaromyces funiculosus): 0.3 µg/mL (≈ 0.789 µM); MIC (Talaromyces funiculosus): 0.2 µg/mL (≈ 0.526 µM); MFC (Penicillium ochrochloron): 0.2 µg/mL (≈ 0.526 µM); MIC (Penicillium ochrochloron): 0.1 µg/mL (≈ 0.263 µM); MFC (Trichoderma viride): 0.3 µg/mL (≈ 0.789 µM); MIC (Trichoderma viride): 0.2 µg/mL (≈ 0.526 µM); MFC (Alternaria alternata): 0.2 µg/mL (≈ 0.526 µM); MIC (Alternaria alternata): 0.1 µg/mL (≈ 0.263 µM)

Structure (SMILES) | MIC (Fusarium tricinctum) [µg/mL] | MIC (Micrococcus luteus) [µg/mL] | MIC (Bacillus subtilis) [µg/mL] | MIC (Pseudomonas tolaasii) [µg/mL] | MIC [1] [µg/mL] | MIC (Salmonella enteritidis) [µg/mL] | MIC (Escherichia coli) [µg/mL] | MIC (Aspergillus flavus) [µg/mL] | MIC (Aspergillus niger) [µg/mL] | MIC (Aspergillus ochraceus) [µg/mL] | MFC (Fusarium tricinctum) [µg/mL] | MBC (Micrococcus luteus) [µg/mL] | MBC (Bacillus subtilis) [µg/mL] | MBC (Pseudomonas tolaasii) [µg/mL] | MBC [1] [µg/mL] | MBC (Salmonella enteritidis) [µg/mL] | MBC (Escherichia coli) [µg/mL] | MFC (Aspergillus flavus) [µg/mL] | MFC (Aspergillus niger) [µg/mL] | MFC (Aspergillus ochraceus) [µg/mL] | also measured
CN[C@@H]1[C@H](O[C@H]2[C@H](O[C@H]3[C@H](O)[C@@H](O)[C@H](N=C(N)N)[C@@H](O)[C@@H]3N=C(N)N)O[C@@H](C)[C@]2(O)C=O)O[C@@H](CO)[C@H](O)[C@H]1O (stereo in doubt) [STREPTOMYCIN] | – | 0.5 (≈ 0.86 µM) | 0.5 (≈ 0.86 µM) | 1 (≈ 1.72 µM) | 1 (≈ 1.72 µM) | 1 (≈ 1.72 µM) | 0.5 (≈ 0.86 µM) | – | – | – | – | 1 (≈ 1.72 µM) | 0.5 (≈ 0.86 µM) | 2 (≈ 3.44 µM) | 1 (≈ 1.72 µM) | 1 (≈ 1.72 µM) | 1 (≈ 1.72 µM) | – | – | – | –
